Laboratory results from patent US5612319A, “Postexposure prevention of HIV infection or seroconversion” (Medivir AB, priority 1994, dated 1997).
Converted amounts (≈) assume the structure as drawn.

Columns and labels:
HIV [1] = details: HIV-infected individuals; cited from earlier work
HIV [2] = details: rapid and sustained postexposure administration of large doses; cited from earlier work
HIV-1, HIV-2 or SIV = details: until shortly after "treatment" is concluded; cited from earlier work
SIV [3] = details: prophylactically, i.e. pre-exposure administered; cited from earlier work
[4] = test system: lentivirus infections with HIV or SIV; details: administered prophylactically, prior to exposure to HIV or SIV; cited from earlier work
[5] = Cell culture tolerance in MT4 cells; format: cell-based, human; details: human; cell culture, MT4 cells; read-out: ID50 in MT4 cells
MT4 cells = assay: Cell culture tolerance in MT4 cells; format: cell-based, human; details: cell culture results
SIV [6] = assay: Postexposure prevention of SIV infection in macaque monkeys (Example 2, Table 1); format: in vivo; details: for Detected during 30 days post virus inoculation: SIV Ag / Detected during 30 days post virus inoculation: SIV-2 / SIV antibody detected during 30 days post inoculation: 10 mg/kg s.c. three times per day
Method: Inoculation: The control and test animals, 2 year old macaque monkeys were inoculated […] with either a moderate (10 monkey infectious doses MID50, as determined by Bottiger et al Antiviral Chemistry and Chemotherapy 1992;3:269-271) or a high (100 MID50) dose preparation of SIV in phosphate buffer, as listed in Table 1 below.
One or three hours after i.v. inoculation with SIV, paired test animals were injected subcutaneously with 10 mg/kg of the preparation of Example 1, repeated three times per day for 1 day or 3 days as listed in table 1. Blood samples were extracted from the test and control animals on days 0, 17, 23 and 30 for determination of SIV antibody, SIV p26 antigen and presence of infective virus. The methods have been described by Bottiger et al, AIDS Res Hum Retroviruses 1992;7:1235-1238.

[7] = In vivo simian experiments, short term toxicity; details: 30 mg/kg/day
SIV [8] = details: administered from 8 hours prior to virus inoculation; cited from earlier work
[9] = 10 MID50, treatment start 1 hour post inoculation, duration 1 day, monkeys 45, 46
[10] = 10 MID50, treatment start 1 hour post inoculation, duration 3 days, monkeys 48, 49
[11] = 10 MID50, treatment start 3 hours post inoculation, duration 3 days, monkeys 54, 57
[12] = 100 MID50, treatment start 1 hour post inoculation, duration 3 days, monkeys 53, 58

Structure (SMILES): Cc1cn([C@H]2C[C@H](N=[N+]=[N-])[C@@H](CO)O2)c(=O)[nH]c1=O [AZT, zidovudine]
- suppression of AIDS development or reducing viral loads (HIV [1]): clinically significant action
- published accounts of seroconversion after accidental exposure to HIV (HIV [2]): 13 published accounts
- delay of seroconversion (HIV-1, HIV-2 or SIV): at most appear to delay seroconversion
- prevention of infection with SIV (SIV [3]): inability to prevent infection with SIV
- effect on pattern of lentivirus infections [4]: may alter the pattern of lentivirus infections

Structure (SMILES): Nc1ccn([C@H]2C[C@H](CO)[C@@H](CO)O2)c(=O)n1 [Example 1, 1-[2',3'-dideoxy-3'-C-(hydroxymethyl)-β-D-erythro-pentofuranosyl]-cytosine]
- CC50 [5]: ~45 µg/mL (≈ 187 µM)
- tolerance by human cells (MT4 cells): generally well tolerated
- Detected during 30 days post virus inoculation: SIV Ag (SIV [6]; [9]): -
- Detected during 30 days post virus inoculation: SIV-2 (SIV [6]; [9]): -
- SIV antibody detected during 30 days post inoculation (SIV [6]; [9]): -
- Detected during 30 days post virus inoculation: SIV Ag (SIV [6]; [10]): -
- Detected during 30 days post virus inoculation: SIV-2 (SIV [6]; [10]): -
- SIV antibody detected during 30 days post inoculation (SIV [6]; [10]): -
- Detected during 30 days post virus inoculation: SIV Ag (SIV [6]; [11]): -
- Detected during 30 days post virus inoculation: SIV-2 (SIV [6]; [11]): -
- SIV antibody detected during 30 days post inoculation (SIV [6]; [11]): -
- Detected during 30 days post virus inoculation: SIV Ag (SIV [6]; [12]): -
- Detected during 30 days post virus inoculation: SIV-2 (SIV [6]; [12]): -
- SIV antibody detected during 30 days post inoculation (SIV [6]; [12]): -
- protection from 100 infectious doses of SIV (SIV [6]; 3 days treatment, 100 infectious doses, animals 53 and 58): protected the test animals from the very high dose of 100 infectious doses of SIV
- prevention of infection establishing itself in the test animals (SIV [6]; all test animals, viral antigen, antibody or virus culture in blood): prevented the infection establishing itself in the test animals
- SIV antibody or SIV antigen in test animals (SIV [6]; each test animal, 30 day period monitored): free from detectable SIV antibody or SIV antigen
- infectious virus cultivated from blood samples (SIV [6]; each test animal, day 30): infectious virus could not be cultivated
- protection from 10 infectious doses of SIV (SIV [6]; single day of treatment, 10 infectious doses): protected the test animals from 10 infectious doses of SIV
- toxicity short term in simian experiments [7]: no detectable toxicity

Structure (SMILES): Cc1cn([C@H]2C[C@H](F)[C@@H](CO)O2)c(=O)[nH]c1=O [FLT, 3'-fluorothymidine]
- protection against SIV (SIV [8]): may provide some protection against SIV

Structure (SMILES): O=C(O)P(=O)(O)O [PFA]
- prevention of infection with SIV (SIV [3]): inability to prevent infection with SIV

Structure (SMILES): Cc1cn([C@H]2C=C[C@@H](CO)O2)c(=O)[nH]c1=O [d4T]
- prevention of infection with SIV (SIV [3]): inability to prevent infection with SIV

Structure (SMILES): Nc1ccn([C@H]2CC[C@@H](CO)O2)c(=O)n1 [ddC]
- prevention of infection with SIV (SIV [3]): inability to prevent infection with SIV
